target: Cyclin-dependent kinase 2/G1/S-specific cyclin-E1 (Homo sapiens, UniProt P24941+P24864); test: Biological Activity Assay
Experimental: Kinase enzymatic reactions were performed in 384-well microplates using a 12-channel Caliper LabChip instrument as a detection device. […] As substrate and product are separated, two peaks of fluorescence are observed. Change in the relative fluorescence intensity of the substrate and product peaks is the parameter measured, reflecting enzyme activity. In the presence of an inhibitor, the ratio between product and substrate is altered. […] Potential inhibitor compounds (as HCl salts) were tested using 12-point dose response curves in single point at the Km for ATP.

Row | SMILES | IC50 [µM]
1 | CCC(C)[C@H]1CN(C)C(=O)C2=CC3C=NC(Nc4ccc(N5CCNCC5)cn4)=NC3N21 (some centres undefined) [US10696682, Compound 19] | > 100
2 | CC(C)CC1CN(C)C(=O)C2=CC3C=NC(Nc4ccc(N5CCNCC5)cn4)=NC3N21 (centres undefined) [US10696682, Compound 47] | > 100
3 | CN1CCN(c2ccc(NC3=NC4C(C=N3)C=C3C(=O)N[C@H]5CCC[C@@H]5N34)nc2)CC1 (some centres undefined) [US10696682, Compound 48] | > 100
4 | CN1CCN2C(=CC3C=NC(Nc4ccc(N5CCNCC5)cn4)=NC32)C1=O (centres undefined) [US10696682, Compound 5] | > 100
5 | CC(C)C[C@H]1CN(C)C(=O)C2=CC3C=NC(Nc4ccc(N5CCNCC5)cn4)=NC3N21 (some centres undefined) [US10696682, Compound 15] | > 100
6 | CCC(C)[C@H]1CN(C)C(=O)C2=CC3C=NC(Nc4ccc(N5CCN(C)CC5)cn4)=NC3N21 (some centres undefined) [US10696682, Compound 18] | > 100
7 | CC(C)C1CNC(=O)C2=CC3C=NC(Nc4ccc(N5CCN(C)CC5)cn4)=NC3N21 (centres undefined) [US10696682, Compound 7] | > 100
8 | CN1CC2(CCCC2)N2C(=CC3C=NC(Nc4ccc(N5CCNCC5)cn4)=NC32)C1=O (centres undefined) [US10696682, Compound 31] | > 100
9 | CC(C)[C@H]1CN(C)C(=O)C2=CC3C=NC(Nc4ccc(N5CCNCC5)cn4)=NC3N21 (some centres undefined) [US10696682, Compound 11] | > 100

Reference: BindingDB's records for patent US10696682 (G1 Therapeutics, 2020)
